Test results from publication PMC7760137, “Solid Lipid Nanoparticles as Formulative Strategy to Increase Oral Permeation of a Molecule Active in Multidrug-Resistant Tuberculosis Management” (Pharmaceutics, 2020).
In brackets after ≈: the same amount, converted by molar mass.

Key:
[1] = system: M. tuberculosis strain 1670; test: Drug sensitivity testing, Bactec MGIT 960; format: cell-based, Mycobacterium tuberculosis; set-up: key: sensitive (S); resistant (R)
[2] = system: M. tuberculosis clinical isolate 512; test: microbe, parasite or virus in culture; format: cell-based; conditions: Mycobacterium tuberculosis
[3] = system: M. tuberculosis strain 571; test: Drug sensitivity testing, Bactec MGIT 960; format: cell-based, Mycobacterium tuberculosis; set-up: key: sensitive (S); resistant (R)
[4] = system: M. tuberculosis clinical isolate 1762; test: microbe, parasite or virus in culture; format: cell-based; conditions: Mycobacterium tuberculosis
[5] = system: M. tuberculosis strain 512; test: Drug sensitivity testing, Bactec MGIT 960; format: cell-based, Mycobacterium tuberculosis; set-up: key: sensitive (S); resistant (R)
[6] = system: M. tuberculosis strain 1097; test: Drug sensitivity testing, Bactec MGIT 960; format: cell-based, Mycobacterium tuberculosis; set-up: key: sensitive (S); resistant (R)
[7] = system: M. tuberculosis clinical isolate 571; test: microbe, parasite or virus in culture; format: cell-based; conditions: Mycobacterium tuberculosis
[8] = system: M. tuberculosis H37Rv; test: Drug sensitivity testing, Bactec MGIT 960; format: cell-based, Mycobacterium tuberculosis; set-up: key: sensitive (S); resistant (R); conditions: strain H37Rv
[9] = system: M. tuberculosis clinical isolate 1120; test: microbe, parasite or virus in culture; format: cell-based; conditions: Mycobacterium tuberculosis
[10] = system: M. tuberculosis strain 600; test: Drug sensitivity testing, Bactec MGIT 960; format: cell-based, Mycobacterium tuberculosis; set-up: key: sensitive (S); resistant (R)
[11] = system: M. tuberculosis H37Rv strain (ATCC 27294); test: Resazurin microtiter assay (REMA); format: cell-based; conditions: Mycobacterium tuberculosis, drug alone
Description: REMA assays were performed in sterile 96-well microtiter plates with round-bottom wells, sealed in a plastic bag. Mycobacteria were cultured in Middlebrook 7H11 medium supplemented with OADC. […] Final bacterial inocula were approximately 1–5 × 10^5 CFU/mL. Plates were incubated at 37 °C and were read after 72 h. Once the final visual reading was performed, 30 μL of 0.02% resazurin was added to each well before reincubation overnight. Bacterial growth was measured by the change in color from blue (oxidized state) to pink (reduced), and minimal inhibitory concentration (MIC) was defined as the lowest drug concentration that prevented the color change and, therefore, the mycobacteria growth.

[12] = system: M. tuberculosis clinical isolate 1670; test: microbe, parasite or virus in culture; format: cell-based; conditions: Mycobacterium tuberculosis
[13] = system: M. tuberculosis clinical isolate 600; test: microbe, parasite or virus in culture; format: cell-based; conditions: Mycobacterium tuberculosis
[14] = system: M. tuberculosis strain 952; test: Drug sensitivity testing, Bactec MGIT 960; format: cell-based, Mycobacterium tuberculosis; set-up: key: sensitive (S); resistant (R)
[15] = system: M. tuberculosis clinical isolate 368; test: microbe, parasite or virus in culture; format: cell-based; conditions: Mycobacterium tuberculosis
[16] = system: M. tuberculosis clinical isolate 1097; test: microbe, parasite or virus in culture; format: cell-based; conditions: Mycobacterium tuberculosis
[17] = system: M. tuberculosis strain 1762; test: Drug sensitivity testing, Bactec MGIT 960; format: cell-based, Mycobacterium tuberculosis; set-up: key: sensitive (S); resistant (R)
[18] = system: M. tuberculosis strain 1120; test: Drug sensitivity testing, Bactec MGIT 960; format: cell-based, Mycobacterium tuberculosis; set-up: key: sensitive (S); resistant (R)
[19] = system: M. tuberculosis strain 368; test: Drug sensitivity testing, Bactec MGIT 960; format: cell-based, Mycobacterium tuberculosis; set-up: key: sensitive (S); resistant (R)
[20] = system: M. tuberculosis clinical isolate 952; test: microbe, parasite or virus in culture; format: cell-based; conditions: Mycobacterium tuberculosis

Row | Structure (SMILES) | Drug sensitivity test result [1] | MIC [2] [µg/mL] | Drug sensitivity test result [3] | MIC [4] [µg/mL] | Drug sensitivity test result [5] | Drug sensitivity test result [6] | MIC [7] [µg/mL] | Drug sensitivity test result [8] | MIC [9] [µg/mL] | Drug sensitivity test result [10] | MIC [11] [µg/mL] | MIC [12] [µg/mL] | MIC [13] [µg/mL] | Drug sensitivity test result [14] | MIC [15] [µg/mL] | MIC [16] [µg/mL] | Drug sensitivity test result [17] | Drug sensitivity test result [18] | Drug sensitivity test result [19] | MIC [20] [µg/mL]
1 | CC[C@@H](CO)NCCN[C@@H](CC)CO [EMB, ethambutol] | S | 4 (≈ 19.6 µM) | R | 4 (≈ 19.6 µM) | R | R | > 16 | S | > 64 | R | 1 (≈ 4.89 µM) | 1 (≈ 4.89 µM) | > 16 | S | > 16 | 32 (≈ 157 µM) | R | R | R | 1 (≈ 4.89 µM)
2 | NNC(=O)c1ccncc1 [INH, isoniazid] | S | 1 (≈ 7.29 µM) | R | 0.062 (≈ 0.452 µM) | R | R | > 1 | S | > 16 | R | 0.125 (≈ 0.911 µM) | 0.125 (≈ 0.911 µM) | > 1 | S | < 1 | 2 (≈ 14.6 µM) | S | R | R | 0.062 (≈ 0.452 µM)
3 | CO[C@H]1/C=C/O[C@@]2(C)Oc3c(C)c(O)c4c(O)c(c(/C=N/N5CCN(C)CC5)c(O)c4c3C2=O)NC(=O)/C(C)=C\C=C\[C@H](C)[C@H](O)[C@@H](C)[C@@H](O)[C@@H](C)[C@H](OC(C)=O)[C@@H]1C [RIF, rifampicin] | S | > 2 | R | > 2 | R | S | > 2 | S | 8 (≈ 9.72 µM) | R | 0.25 (≈ 0.304 µM) | 0.125 (≈ 0.152 µM) | > 2 | R | 0.25 (≈ 0.304 µM) | 0.25 (≈ 0.304 µM) | R | R | S | 0.5 (≈ 0.608 µM)
4 | [H]/N=C(/N)N[C@H]1[C@H](O)[C@@H](O)[C@H](O[C@@H]2O[C@@H](C)[C@](O)(C=O)[C@H]2O[C@@H]2O[C@@H](CO)[C@H](O)[C@@H](O)[C@@H]2NC)[C@@H](N/C(N)=N\[H])[C@@H]1O [SM, streptomycin] | S | 0.5 (≈ 0.86 µM) | R | 0.125 (≈ 0.215 µM) | S | R | 0.25 (≈ 0.43 µM) | S | 4 (≈ 6.88 µM) | R | 0.125 (≈ 0.215 µM) | 0.125 (≈ 0.215 µM) | > 4 | S | 0.5 (≈ 0.86 µM) | 4 (≈ 6.88 µM) | S | R | S | 0.062 (≈ 0.107 µM)
